Test [1] concerns MDA-MB-231 cells. In words: Clonogenic assay, MDA-MB-231. To be noted: for reduction of clonogenicity: MDA-MB-231, 50 μM, 48 h. Format: cell-based, human. On the procedure:
Afterward, the selected compounds 3a–d were assayed at 50 μM for 24 and 48 h in CAL-62 and MDA-MB-231 cells to assess their ability to impair the cell viability and colony formation in either normoxia or hypoxia-induced condition, the latter obtained by adding a 200 μM cobalt chloride solution, as described in previous reports[69] (Figure 8). Most cancer cells, mainly solid types, are known to have an altered metabolism due to hypoxia, a non-physiological level of oxygen tension, which contributes to therapy resistance by causing cellular quiescence.[70] Moreover, hypoxic cancer cells can induce several factors that lead to cell proliferation and colony formation.[71]
Cells were seeded in a 100 mm dish and, once at 80–90% confluence, treated as described in the Results and Discussion section. After 24 and 48 h, cells were collected, counted, and 500 cells plated in a 100 mm dish. After about 7 days for CAL62 and 10 days for MDA-MB-231, plates were washed with phosphate-buffered saline solution (PBS); (Merck; 79382), and clones were fixed with 4% formaldehyde solution in PBS (Merck; F8775) at room temperature for 15 min. After that, the dishes were washed with PBS, and clones stained for 5 min with 0.5% crystal violet (Merck; C0775). Finally, the plates were washed with distilled water and air-dried. After scanning each individual dish, the colonies were counted the following day.

Test [2] has as its system MDA-MB-231 cells. In words: Cell viability / cell death, trypan blue exclusion, MDA-MB-231. Format: cell-based, human.
For test [3], the target named is T1, human SIRT3 (Homo sapiens, UniProt Q9NTG7).
T1 construct: pET151D/Topo (Sirt3-114-380 and Sirt5-34-302); His tag (N, cleaved yes); made in house; host or cells: Escherichia coli
T1 sequence (Q9NTG7 114-380): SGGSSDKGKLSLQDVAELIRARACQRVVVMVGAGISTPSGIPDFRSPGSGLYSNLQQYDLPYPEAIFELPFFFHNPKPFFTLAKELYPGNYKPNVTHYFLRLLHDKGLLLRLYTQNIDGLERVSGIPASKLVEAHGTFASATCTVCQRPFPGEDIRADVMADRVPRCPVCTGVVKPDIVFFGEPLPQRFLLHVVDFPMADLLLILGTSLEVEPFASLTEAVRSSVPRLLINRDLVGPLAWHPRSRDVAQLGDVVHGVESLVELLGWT
Kind of test: PncA/GDH-coupled deacylation assay, SIRT3 activation (ACS2-acK642 substrate). Format: biochemical. The conditions noted are these: 100 μM, 387% vs 269%. As to the method: To avoid artifacts and other non-specific effects, instead of the “Fluor-de-Lys” (FdL) substrate, we used a PncA/GDH-coupled deacylation assay by measuring the NADPH oxidation to NADP^+ that relies on isoform-specific non-modified physiological acetyl or succinyl substrates [p53-acK381 for SIRT1, α-tubulin-[…] for SIRT2, acetyl-CoA synthetase 2 (ACS2)-acK642 for SIRT3, and CPS1-succK537 for SIRT5].[59] The assays were carried out using the 1,4-DHP derivatives 2a–n and 3a–d against SIRT3, including the prototype compounds 2 and 3 as positive controls.
N-terminally his-tagged human sirtuins were expressed in Escherichia coli using constructs in pET15b (Sirt1) or pET151D/Topo (Sirt3-114-380 and Sirt5-34-302).[4],[59],[61] Sirt2-43-356 was expressed from a modified pET19b containing a TEV protease cleavage site and an N-terminal SUMO-tag.[59],[79] Proteins were expressed and purified as described elsewhere.[59],[61],[79]−[81] In brief, proteins were expressed in E. coli, crude extracts were cleared by centrifugation, and the proteins were affinity purified using NiNTA beads.
Sirtuin deacylation activities were analyzed by using a coupled enzymatic assay as described in.[59],[82] […]

Read-outs that look alike come from different tables or passages of the source.

The IC50 is the point on the concentration scale where inhibition reaches its midpoint. In general, viability refers to the share of living cells, or the viability signal relative to a control.

Regarding `CCOC(=O)C1=CN(C(=O)c2cc(OC)cc(OC)c2)C=C(C(=O)OCC)C1c1ccccc1` [Compound 3d, Diethyl 1-(3,5-dimethoxybenzoyl)-4-phenyl-1,4-dihydropyridine-3,5-dicarboxylate], in test [1] (Homo sapiens, MDA-MB-231, 48 h, normoxia, read-out: IC50 against colonies formation), the IC50 is roughly 2.2 µM. Further, the reduction of clonogenicity is 95% in test [1] (hypoxia) and 86% in test [1] (normoxia). Further, the viability at 5 µM worked out at 74.1% in test [2] (Homo sapiens, MDA-MB-231, 5 μM, 24 h, read-out: Cell viability (%) T24) and 51.7% in test [2] (Homo sapiens, MDA-MB-231, 5 μM, 48 h, read-out: Cell viability (%) T48). Also, in test [2] (Homo sapiens, MDA-MB-231, 10 μM, 24 h, read-out: Cell viability (%) T24), the viability at 10 µM turned out to be 56.2%. Further, the viability at 25 µM in test [2] (Homo sapiens, MDA-MB-231, 25 μM, 24 h, read-out: Cell viability (%) T24) is 42.8%; in test [2] (Homo sapiens, MDA-MB-231, 25 μM, 48 h, read-out: Cell viability (%) T48) it was 21.1%. Also, the “Cell death (%) T24” value in test [2] (MDA-MB-231, 5 μM, 24 h) was 25,9%; in test [2] (MDA-MB-231, 10 μM, 24 h) it was 43,8%; in test [2] (MDA-MB-231, 25 μM, 24 h) it was 57,2%. The “Cell death (%) T48” value is 48,3% in test [2] (MDA-MB-231, 5 μM, 48 h) and 78,8% in test [2] (MDA-MB-231, 25 μM, 48 h).
Consider `CCOC(=O)C1=CN(C(=O)c2ccc(OC)c(OC)c2)C=C(C(=O)OCC)C1c1ccccc1` [Compound 3c, Diethyl 1-(3,4-dimethoxybenzoyl)-4-phenyl-1,4-dihydropyridine-3,5-dicarboxylate], for which, in test [3], the “SIRT3 activation potency relative to reference 3” value is 1.4 fold.

These data come from PMC10388363, “Novel 1,4-Dihydropyridines as Specific Binders and Activators of SIRT3 Impair Cell Viability and Clonogenicity and Downregulate Hypoxia-Induced Targets in Cancer Cells” (Journal of Medicinal Chemistry, 2023).
